In US12377112B2, “Methods of treating neurocognitive disorders, chronic pain and reducing inflammation” (priority 2019, dated 2025):

Test system: healthy subjects
Test: Phase 1 study in healthy subjects: adverse events and acute effects
Type: in vivo, human
Protocol: A Phase 1 randomized, double-blind, placebo-controlled study to evaluate the effect of psilocybin on cognitive and emotional processing as compared to placebo in healthy volunteers was conducted. The study investigated the short-term (Day 7) and long-term (Day 28) effects of moderate (10 mg) and high doses (25 mg) of psilocybin on key domains of cognition, such as episodic memory, attention, working and spatial memory, social cognition and elements of executive function, including cognitive flexibility.
90 healthy subjects were studied. Approximately 50% of the subjects were psilocybin-naïve. For subjects with prior psilocybin experience, the last exposure was at least 1 year prior to the signing of the Informed Consent Form (ICF). Approximately 50% of the subjects were female. Subjects were stratified by sex and age (18-35 years old; >35 years old).
Each subject was assigned 1 treatment bottle containing 5 capsules packaged in a double-blind fashion, depending on the randomized treatment arm, the bottle contained one of the following: • a. Psilocybin 10 mg: 2×5-mg oral psilocybin capsules plus 3×placebo capsules • b. Psilocybin 25 mg: 5×5-mg oral psilocybin capsules • c. Placebo: 5×placebo capsules
Each 5-mg oral psilocybin capsule comprised 5 mg crystalline psilocybin in the form of Polymorph A, 12.5 mg of SMCC 50, 79.5 mg of SMCC 90, 1 mg sodium starch glycolate, 1 mg colloidal silicon dioxide, and 1 mg sodium stearyl fumarate
Adverse events: Throughout the course of the study, all AEs were monitored and recorded. Each AE was classified according to the following criteria: • i. […] Moderate: The AE produces some impairment of functioning, but is not hazardous to the subject's health. • iii. Severe: The AE produces significant impairment of functioning or incapacitation and is a definite hazard to the subject's health.
Selected Adverse Events of included: • (a) Euphoric mood • (b) Dissociative disorder • (c) Hallucination • (d) Psychotic disorder • (e) Cognitive disorder • (f) Disturbance in attention • (g) Altered mood • (h) Impairment of psychomotor skills • (i) Inappropriate affect • (j) Overdose • (k) Intentional product misuse • (l) Illusion
For example, drug-induced hepatitis that resolved without evidence of hepatic failure would not be considered life threatening even though drug-induced hepatitis can be fatal. • (c) Inpatient hospitalization or prolongation of existing hospitalization. • (d) Persistent or significant disability/incapacity. • (e) Congenital anomaly/birth defect in the offspring of a subject who received psilocybin. • (f) Other: Important medical events that may not result in death, be life-threatening, or require hospitalization, may be considered an SAE when, based upon appropriate medical judgment, they may jeopardize the subject and may require medical or surgical intervention to prevent one of the outcomes listed in this definition. […] Visits:
Visit 3 (V3): Drug Administration (Day 0): The subject was asked to eat a light breakfast at least two hours prior to coming to the clinic for study drug administration. On Day 0 (V3), the subject underwent the SSTS, had vital signs obtained, medications reviewed, AEs recorded and eligibility reviewed prior to being randomized to study drug. The study drug was administered to up to six subjects simultaneously in individual beds separated by a curtain. The subject was invited to put on eyeshades and headphones, lie down and listen to calming music for the rest of the session (six hours). The subject was supported 1:1 with a chaperone and supervised by the study psychiatrist and lead therapist.
The effects of psilocybin usually started about 20 to 30 min after administration, becoming most intense in the first 90 to 120 min and gradually subsiding in about 5 to 6 hours. […]

CN(C)CCc1c[nH]c2cccc(OP(=O)(O)O)c12 [Psilocybin, psilocybin]
Illusion, worst severity Moderate: Events (10 mg): 16
Serious adverse events or adverse events that led to withdrawal (10 mg and 25 mg, 12-week study): no serious adverse events
Selected TEAE (any), subjects N (%) (Psilocybin 10 mg (N = 30)): 27 (90.0) N (%)
Selected TEAE: Affect lability, Events (Psilocybin 10 mg (N = 30)): 5
Selected TEAE: Affect lability, subjects N (%) (Psilocybin 10 mg (N = 30)): 5 (16.7) N (%)
Selected TEAE: Change in sustained attention, Events (Psilocybin 10 mg (N = 30)): 2
Selected TEAE: Change in sustained attention, subjects N (%) (Psilocybin 10 mg (N = 30)): 2 (6.7) N (%)
Selected TEAE: Depressed mood, Events (Psilocybin 10 mg (N = 30)): 1
Selected TEAE: Depressed mood, subjects N (%) (Psilocybin 10 mg (N = 30)): 1 (3.3) N (%)
Selected TEAE: Dissociative identity disorder, Events (Psilocybin 10 mg (N = 30)): 2
Selected TEAE: Dissociative identity disorder, subjects N (%) (Psilocybin 10 mg (N = 30)): 1 (3.3) N (%)
Selected TEAE: Euphoric mood, Events (Psilocybin 10 mg (N = 30)): 7
Selected TEAE: Euphoric mood, subjects N (%) (Psilocybin 10 mg (N = 30)): 7 (23.3) N (%)
Selected TEAE: Hallucination, Events (Psilocybin 10 mg (N = 30)): 3
Selected TEAE: Hallucination, auditory, Events (Psilocybin 10 mg (N = 30)): 4
Selected TEAE: Hallucination, auditory, subjects N (%) (Psilocybin 10 mg (N = 30)): 4 (13.3) N (%)
Selected TEAE: Hallucination, gustatory, Events (Psilocybin 10 mg (N = 30)): 1
Selected TEAE: Hallucination, gustatory, subjects N (%) (Psilocybin 10 mg (N = 30)): 1 (3.3) N (%)
Selected TEAE: Hallucination, olfactory, Events (Psilocybin 10 mg (N = 30)): 1
Selected TEAE: Hallucination, olfactory, subjects N (%) (Psilocybin 10 mg (N = 30)): 1 (3.3) N (%)
Selected TEAE: Hallucination, subjects N (%) (Psilocybin 10 mg (N = 30)): 3 (10.0) N (%)
Selected TEAE: Hallucination, tactile, Events (Psilocybin 10 mg (N = 30)): 2
Selected TEAE: Hallucination, tactile, subjects N (%) (Psilocybin 10 mg (N = 30)): 2 (6.7) N (%)
Selected TEAE: Hallucination, visual, Events (Psilocybin 10 mg (N = 30)): 20
Selected TEAE: Hallucination, visual, subjects N (%) (Psilocybin 10 mg (N = 30)): 18 (60.0) N (%)
Selected TEAE: Illusion, Events (Psilocybin 10 mg (N = 30)): 25
Selected TEAE: Illusion, subjects N (%) (Psilocybin 10 mg (N = 30)): 19 (63.3) N (%)
Selected TEAE: Memory impairment, Events (Psilocybin 10 mg (N = 30)): 1
Selected TEAE: Memory impairment, subjects N (%) (Psilocybin 10 mg (N = 30)): 1 (3.3) N (%)
Selected TEAE: Mood altered, Events (Psilocybin 10 mg (N = 30)): 23
Selected TEAE: Mood altered, subjects N (%) (Psilocybin 10 mg (N = 30)): 13 (43.3) N (%)
Selected TEAE: Nervous system disorders (SOC), Events (Psilocybin 10 mg (N = 30)): 2
Selected TEAE: Nervous system disorders (SOC), subjects N (%) (Psilocybin 10 mg (N = 30)): 2 (6.7) N (%)
Selected TEAE: Psychiatric disorders (SOC), Events (Psilocybin 10 mg (N = 30)): 104
Selected TEAE: Psychiatric disorders (SOC), subjects N (%) (Psilocybin 10 mg (N = 30)): 27 (90.0) N (%)
Selected TEAE: Psychomotor skills impaired, Events (Psilocybin 10 mg (N = 30)): 1
Selected TEAE: Psychomotor skills impaired, subjects N (%) (Psilocybin 10 mg (N = 30)): 1(3.3) N (%)
Selected TEAE: Somatic hallucination, Events (Psilocybin 10 mg (N = 30)): 8
Selected TEAE: Somatic hallucination, subjects N (%) (Psilocybin 10 mg (N = 30)): 8 (26.7) N (%)
Selected TEAE: Substance-induced psychotic disorder, Events (Psilocybin 10 mg (N = 30)): 0
Selected TEAE: Substance-induced psychotic disorder, subjects N (%) (Psilocybin 10 mg (N = 30)): 0 N (%)
Selected TEAE (any), subjects N (%) (Psilocybin 25 mg (N = 30)): 27 (90.0) N (%)
Selected TEAE: Affect lability, Events (Psilocybin 25 mg (N = 30)): 3
Selected TEAE: Affect lability, subjects N (%) (Psilocybin 25 mg (N = 30)): 3 (10.0) N (%)
Selected TEAE: Change in sustained attention, Events (Psilocybin 25 mg (N = 30)): 0
Selected TEAE: Change in sustained attention, subjects N (%) (Psilocybin 25 mg (N = 30)): 0 N (%)
Selected TEAE: Depressed mood, Events (Psilocybin 25 mg (N = 30)): 2
Selected TEAE: Depressed mood, subjects N (%) (Psilocybin 25 mg (N = 30)): 2 (6.7) N (%)
Selected TEAE: Dissociative identity disorder, Events (Psilocybin 25 mg (N = 30)): 2
Selected TEAE: Dissociative identity disorder, subjects N (%) (Psilocybin 25 mg (N = 30)): 2 (6.7) N (%)
Selected TEAE: Euphoric mood, Events (Psilocybin 25 mg (N = 30)): 8
Selected TEAE: Euphoric mood, subjects N (%) (Psilocybin 25 mg (N = 30)): 7 (23.3) N (%)
Selected TEAE: Hallucination, Events (Psilocybin 25 mg (N = 30)): 2
Selected TEAE: Hallucination, auditory, Events (Psilocybin 25 mg (N = 30)): 4
Selected TEAE: Hallucination, auditory, subjects N (%) (Psilocybin 25 mg (N = 30)): 4 (13.3) N (%)
Selected TEAE: Hallucination, gustatory, Events (Psilocybin 25 mg (N = 30)): 0
Selected TEAE: Hallucination, gustatory, subjects N (%) (Psilocybin 25 mg (N = 30)): 0 N (%)
Selected TEAE: Hallucination, olfactory, Events (Psilocybin 25 mg (N = 30)): 1
Selected TEAE: Hallucination, olfactory, subjects N (%) (Psilocybin 25 mg (N = 30)): 1 (3.3) N (%)
Selected TEAE: Hallucination, subjects N (%) (Psilocybin 25 mg (N = 30)): 2 (6.7) N (%)
Selected TEAE: Hallucination, tactile, Events (Psilocybin 25 mg (N = 30)): 4
Selected TEAE: Hallucination, tactile, subjects N (%) (Psilocybin 25 mg (N = 30)): 4 (13.3) N (%)
Selected TEAE: Hallucination, visual, Events (Psilocybin 25 mg (N = 30)): 22
Selected TEAE: Hallucination, visual, subjects N (%) (Psilocybin 25 mg (N = 30)): 21 (70.0) N (%)
Selected TEAE: Illusion, Events (Psilocybin 25 mg (N = 30)): 26
Selected TEAE: Illusion, subjects N (%) (Psilocybin 25 mg (N = 30)): 18 (60.0) N (%)
Selected TEAE: Memory impairment, Events (Psilocybin 25 mg (N = 30)): 0
Selected TEAE: Memory impairment, subjects N (%) (Psilocybin 25 mg (N = 30)): 0 N (%)
Selected TEAE: Mood altered, Events (Psilocybin 25 mg (N = 30)): 25
Selected TEAE: Mood altered, subjects N (%) (Psilocybin 25 mg (N = 30)): 15 (50.0) N (%)
Selected TEAE: Nervous system disorders (SOC), Events (Psilocybin 25 mg (N = 30)): 0
Selected TEAE: Nervous system disorders (SOC), subjects N (%) (Psilocybin 25 mg (N = 30)): 0 N (%)
Selected TEAE: Psychiatric disorders (SOC), Events (Psilocybin 25 mg (N = 30)): 106
Selected TEAE: Psychiatric disorders (SOC), subjects N (%) (Psilocybin 25 mg (N = 30)): 27 (90.0) N (%)
Selected TEAE: Psychomotor skills impaired, Events (Psilocybin 25 mg (N = 30)): 0
Selected TEAE: Psychomotor skills impaired, subjects N (%) (Psilocybin 25 mg (N = 30)): 0 N (%)
Selected TEAE: Somatic hallucination, Events (Psilocybin 25 mg (N = 30)): 6
Selected TEAE: Somatic hallucination, subjects N (%) (Psilocybin 25 mg (N = 30)): 5 (16.7) N (%)
Selected TEAE: Substance-induced psychotic disorder, Events (Psilocybin 25 mg (N = 30)): 1
Selected TEAE: Substance-induced psychotic disorder, subjects N (%) (Psilocybin 25 mg (N = 30)): 1 (3.3) N (%)
